Test results reported in US5157049A, “Method of treating cancers sensitive to treatment with water soluble derivatives of taxol” (The United States of America as represented by the …, priority 1991, dated 1992).
Values joined by “and” are separate entries in the source; they are usually repeats but may differ in a detail not shown here. Identical values can stand only once. “Also recorded” adds a separate entry of the source. Counter-ions that a name gives are not always drawn. One block for each compound: values may come before it.

Key:
B16 Melanoma = experiment: Antitumor activity in the B16 melanoma system (NCI screen); details: for % T/C (median lifetime) / cures (live animals day 60) / Survivors Day 4 / WT Diff, g (T - C): B16, Q01D × 09; for antitumor activity (in words): summary statements on in vivo screening, Table VI
Protocol: Another approach to make basic derivatives is based on the concept of taking an existing hydrolysable derivative and further modifying it to form a derivative that allows for stepwise hydrolysis.
Antitumor Activity in the B16 Melanoma System^a
^a Screening was carried out under the auspices of the National Cance
Institute. For detailed explanations of procedures and data, see
Instruction 14, Screening Data Summary Interpretation and Outline of
Current Screen, Drug Evaluation Branch, Developmental Therapeutics
Program, Division of Cancer Treatment, National Cancer Institute,
Bethesda, Maryland 20892.
^b Q01D × 09. Single dose for 9 days; given in milligrams per
kilogram body weight per injection.
^c Abbreviations: survivors day 4, live animals on the fourth day of
testing/total animal; wt diff, g (T - C), the difference in body weight i
grams between test and control animals; % T/C, the median lifetime of tes
animals divided by the median lifetime of control animals, times 100; for
the solid tumor system % T/C is 100 × (change in treated tumor wt 1
day 11 - day 0)/change in control tumor wt.) if the tumor grows or 100
× (change in treated tumor wt./initial treated tumor wt.) if the
tumor regresses; cures, number of live animals on the last day of
evaluation for the B16 melanoma system (day 60) or number of animals
without measurable tumor on day 11 for the MX1 mammary tumor system.

Aqueous solubility = details: water
[1] = 7 mg/kg (so in the source) per injection

Compound: CC(=O)O[C@H]1C(=O)[C@]2(C)[C@@H](OC(=O)CCC(=O)O)C[C@H]3OC[C@@]3(OC(C)=O)[C@H]2[C@H](OC(=O)c2ccccc2)[C@]2(O)C[C@H](OC(=O)[C@H](OC(=O)CCC(=O)O)[C@@H](NC(=O)c3ccccc3)c3ccccc3)C(C)=C1C2(C)C [Example 2, Na-Salt]
% T/C (median lifetime) (B16 Melanoma; 2.75 mg/kg per injection, listed as 2, Na-Salt): 120%
% T/C (median lifetime) (B16 Melanoma; 5.5 mg/kg per injection, listed as 2, Na-Salt): 114%
% T/C (median lifetime) (B16 Melanoma; 11 mg/kg per injection): 149%
% T/C (median lifetime) (B16 Melanoma; 22 mg/kg per injection, listed as 2, Na-Salt): 109%
% T/C (median lifetime) (B16 Melanoma; 44 mg/kg per injection, listed as 2, Na-Salt): 166%
antitumor activity (in words) (B16 Melanoma; listed as 2, sodium salt): improved antitumor activity as compared to the free acid; also recorded: considerably less active than the corresponding 2'-mono derivative of Example 1 and its salts
solubility (Aqueous solubility; aqueous solubility): ~3000 µg/mL

Compound: CC(=O)O[C@H]1C(=O)[C@@]2(C)[C@H]([C@H](OC(=O)c3ccccc3)[C@]3(O)C[C@H](OC(=O)[C@H](OC(=O)CCC(=O)O)[C@@H](NC(=O)c4ccccc4)c4ccccc4)C(C)=C1C3(C)C)[C@]1(OC(C)=O)CO[C@@H]1C[C@@H]2O [Example 8, 2'-Succinyltaxol, Triethanolamine Salt]
% T/C (median lifetime) (B16 Melanoma; 6.75 mg/kg per injection): 230%
cures (live animals day 60) (B16 Melanoma; 6.75 mg/kg per injection): 1
% T/C (median lifetime) (B16 Melanoma; [1]): 314%
cures (live animals day 60) (B16 Melanoma; [1]): 3
% T/C (median lifetime) (B16 Melanoma; 13.5 mg/kg per injection): 264%
cures (live animals day 60) (B16 Melanoma; 13.5 mg/kg per injection): 1
% T/C (median lifetime) (B16 Melanoma; 54 mg/kg per injection): TOXIC
antitumor activity (in words) (B16 Melanoma): much more active than the compound of Example 12; also recorded: especially active and potent
aqueous solubility (Aqueous solubility): about 1%
aqueous solubility (in words) (Aqueous solubility): greatly improved aqueous solubility; also recorded: although still soluble, the solutions were not clear and became very viscous

Compound: CC(=O)O[C@H]1C(=O)[C@@]2(C)[C@H]([C@H](OC(=O)c3ccccc3)[C@]3(O)C[C@H](OC(=O)[C@H](OC(=O)CCCC(=O)O)[C@@H](NC(=O)c4ccccc4)c4ccccc4)C(C)=C1C3(C)C)[C@]1(OC(C)=O)CO[C@@H]1C[C@@H]2O [Example 16]
% T/C (median lifetime) (B16 Melanoma; 6.63 mg/kg per injection): 207%
Survivors Day 4 (B16 Melanoma; 6.63 mg/kg per injection): 8/8
WT Diff, g (T - C) (B16 Melanoma; 6.63 mg/kg per injection): 0.4 g
% T/C (median lifetime) (B16 Melanoma; 13.25 mg/kg per injection): 291%
Survivors Day 4 (B16 Melanoma; 13.25 mg/kg per injection): 8/8
WT Diff, g (T - C) (B16 Melanoma; 13.25 mg/kg per injection): 0.4 g
% T/C (median lifetime) (B16 Melanoma; 26.5 mg/kg per injection): 239%
Survivors Day 4 (B16 Melanoma; 26.5 mg/kg per injection): 8/8
WT Diff, g (T - C) (B16 Melanoma; 26.5 mg/kg per injection): 0.4 g
cures (live animals day 60) (B16 Melanoma; 26.5 mg/kg per injection): 2
% T/C (median lifetime) (B16 Melanoma; 53 mg/kg per injection): 300%
Survivors Day 4 (B16 Melanoma; 53 mg/kg per injection): 8/8
WT Diff, g (T - C) (B16 Melanoma; 53 mg/kg per injection): 0.4 g
cures (live animals day 60) (B16 Melanoma; 53 mg/kg per injection): 1
antitumor activity (in words) (B16 Melanoma): very active and potent; also recorded: improved biological properties as compared to the corresponding succinates of Examples 12 and 8

Compound: CC(=O)O[C@H]1C(=O)[C@@]2(C)[C@H]([C@H](OC(=O)c3ccccc3)[C@]3(O)C[C@H](OC(=O)[C@H](OC(=O)CCCC(=O)O)[C@@H](NC(=O)c4ccccc4)c4ccccc4)C(C)=C1C3(C)C)[C@]1(OC(C)=O)CO[C@@H]1C[C@@H]2O [Example 17]
% T/C (median lifetime) (B16 Melanoma; 6.13 mg/kg per injection): 159%
Survivors Day 4 (B16 Melanoma; 6.13 mg/kg per injection): 8/8
WT Diff, g (T - C) (B16 Melanoma; 6.13 mg/kg per injection): 0.4 g
% T/C (median lifetime) (B16 Melanoma; 12.25 mg/kg per injection): 192%
Survivors Day 4 (B16 Melanoma; 12.25 mg/kg per injection): 8/8
WT Diff, g (T - C) (B16 Melanoma; 12.25 mg/kg per injection): 0.6 g
% T/C (median lifetime) (B16 Melanoma; 24.5 mg/kg per injection): 225%
Survivors Day 4 (B16 Melanoma; 24.5 mg/kg per injection): 7/7
WT Diff, g (T - C) (B16 Melanoma; 24.5 mg/kg per injection): 1.5 g
% T/C (median lifetime) (B16 Melanoma; 49 mg/kg per injection): 339%
Survivors Day 4 (B16 Melanoma; 49 mg/kg per injection): 7/7
WT Diff, g (T - C) (B16 Melanoma; 49 mg/kg per injection): 0.4 g
antitumor activity (in words) (B16 Melanoma): very active and potent; also recorded: improved biological properties as compared to the corresponding succinates of Examples 12 and 8

Compound: CC(=O)O[C@H]1C(=O)[C@@]2(C)[C@H]([C@H](OC(=O)c3ccccc3)[C@]3(O)C[C@H](OC(=O)[C@H](OC(=O)CCCC(=O)NCCCN(C)C)[C@@H](NC(=O)c4ccccc4)c4ccccc4)C(C)=C1C3(C)C)[C@]1(OC(C)=O)CO[C@@H]1C[C@@H]2O [Example 25, Aminoamide Derivative of 2'-Glutaryltaxol]
antitumor activity (in words) (B16 Melanoma): extremely potent and active

More lines, main results first:

aqueous solubility (in words) (Aqueous solubility): not water soluble
Compound: CC(=O)O[C@H]1C(=O)[C@@]2(C)[C@H]([C@H](OC(=O)c3ccccc3)[C@]3(O)C[C@H](OC(=O)[C@H](OC(=O)CCC(=O)O)[C@@H](NC(=O)c4ccccc4)c4ccccc4)C(C)=C1C3(C)C)[C@]1(OC(C)=O)CO[C@@H]1C[C@@H]2O [Example 1, 2' Succinyltaxol]
% T/C (median lifetime) (B16 Melanoma; 2.5 mg/kg per injection): 119%
% T/C (median lifetime) (B16 Melanoma; 5 mg/kg per injection): 154%
% T/C (median lifetime) (B16 Melanoma; 10 mg/kg per injection): 159%
cures (live animals day 60) (B16 Melanoma; 10 mg/kg per injection): 1
% T/C (median lifetime) (B16 Melanoma; 20 mg/kg per injection): 154%
% T/C (median lifetime) (B16 Melanoma; 40 mg/kg per injection): 185%
cures (live animals day 60) (B16 Melanoma; 40 mg/kg per injection): 2

aqueous solubility (in words) (Aqueous solubility): not water soluble
Compound: CC(=O)O[C@H]1C(=O)[C@]2(C)[C@@H](OC(=O)CCC(=O)O)C[C@H]3OC[C@@]3(OC(C)=O)[C@H]2[C@H](OC(=O)c2ccccc2)[C@]2(O)C[C@H](OC(=O)[C@H](OC(=O)CCC(=O)O)[C@@H](NC(=O)c3ccccc3)c3ccccc3)C(C)=C1C2(C)C [Example 2, 2'7-Disuccinyltaxol]
% T/C (median lifetime) (B16 Melanoma; 1 mg/kg (so in the source) per injection): 124%
% T/C (median lifetime) (B16 Melanoma; 2.75 mg/kg per injection): 109%
% T/C (median lifetime) (B16 Melanoma; 5.5 mg/kg per injection): 113%
% T/C (median lifetime) (B16 Melanoma; 22 mg/kg per injection): 105%
% T/C (median lifetime) (B16 Melanoma; 44 mg/kg per injection): 114%
antitumor activity (in words) (B16 Melanoma): considerably less active than the corresponding 2'-mono derivative of Example 1 and its salts

aqueous solubility (Aqueous solubility): about 1%
Compound: CC(=O)O[C@H]1C(=O)[C@@]2(C)[C@H]([C@H](OC(=O)c3ccccc3)[C@]3(O)C[C@H](OC(=O)[C@H](OC(=O)CCC(=O)O)[C@@H](NC(=O)c4ccccc4)c4ccccc4)C(C)=C1C3(C)C)[C@]1(OC(C)=O)CO[C@@H]1C[C@@H]2O [Example 11]
% T/C (median lifetime) (B16 Melanoma; 6.25 mg/kg per injection): 125%
% T/C (median lifetime) (B16 Melanoma; 12.5 mg/kg per injection): 134%
% T/C (median lifetime) (B16 Melanoma; 25 mg/kg per injection): 176%
% T/C (median lifetime) (B16 Melanoma; 50 mg/kg per injection): 241%
antitumor activity (in words) (B16 Melanoma): much more active than the compound of Example 12
aqueous solubility (in words) (Aqueous solubility): greatly improved aqueous solubility; also recorded: although still soluble, the solutions were not clear and became very viscous

aqueous solubility (Aqueous solubility; listed as 1, sodium salt): about 0.1%
Compound: CC(=O)O[C@H]1C(=O)[C@@]2(C)[C@H]([C@H](OC(=O)c3ccccc3)[C@]3(O)C[C@H](OC(=O)[C@H](OC(=O)CCC(=O)O)[C@@H](NC(=O)c4ccccc4)c4ccccc4)C(C)=C1C3(C)C)[C@]1(OC(C)=O)CO[C@@H]1C[C@@H]2O [Example 12]
% T/C (median lifetime) (B16 Melanoma; 1.25 mg/kg per injection): 111%
% T/C (median lifetime) (B16 Melanoma; 2.5 mg/kg per injection): 159% and 125%
cures (live animals day 60) (B16 Melanoma; 2.5 mg/kg per injection): 1
% T/C (median lifetime) (B16 Melanoma; 5 mg/kg per injection): 166% and 131%
% T/C (median lifetime) (B16 Melanoma; 10 mg/kg per injection): 183% and 160%
cures (live animals day 60) (B16 Melanoma; 10 mg/kg per injection): 1
% T/C (median lifetime) (B16 Melanoma; 20 mg/kg per injection): 201% and 160%
% T/C (median lifetime) (B16 Melanoma; 40 mg/kg per injection): 218% and 177%
cures (live animals day 60) (B16 Melanoma; 40 mg/kg per injection): 2
antitumor activity (in words) (B16 Melanoma; listed as 1, sodium salt): improved antitumor activity as compared to the free acid
